Values quoted from earlier work in patent US4101676A, “Diphenylpropylamines to treat depression” (Beecham Group Limited, priority 1973, dated 1978).

System: central nervous system
Details: Barron et al, J. Pharm. Pharmacol., 17, 509 (1965); cited from earlier work

SMILES: CN(C)CCC(O)(c1ccccc1)c1ccccc1 [1:1-diphenyl-3-dimethylaminopopan-1-ol]
- effects on the central nervous system: considerable effects on the central nervous system
- side effects: anorexia, diuresis, ataxia and drowsiness
